# Measured values reported in patent US20230165831A1, “METHOD AND COMPOSITION FOR RENDERING CANCER CELLS SUSCEPTIBLE TO TREATMENT BY TARGETED ONCOGENETIC DRIVERS” (IMPACT BIOLIFE SCIENCE, INC., priority 2021, published 2023).
# Where two headings read alike, the source gives them in different places.
# How the values were obtained:
# [1] = test system: lung adenocarcinoma line A549 cells; assay: CTG (CellTiter-Glo) cell viability assay, 6×6 combo matrix, 72 h, A549; details: for Relatively Cell inhibition of vehicle control(%): A549;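 for all read-outs here: luminescent ATP readout with CellTiter-Glo after compound exposure, used to assess growth inhibition and combination synergy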
# [2] = test system: kidney cancer line 786-O cells;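 note: luminescence read-out after adding CellTiter-Glo reagent, with cells incubated at 37 °C under 5% CO2 during compound exposure, part of a ten cell line synergy study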
# Protocol: (§1) To measure the cell inhibition effect of compounds and synergy effect of test articles on ten (10) cell lines using standard CTG assay.
# (§2) 7) Using complete cell medium, adjust the volume of the suspension to achieve a cell concentration.
# (§3) b. A549, T47D, SK-OV-3, MKN45, SK-Hep-1, HT-29, Capan-1, 786-O and LNCaP cell line, for compounds and vehicle groups, the seeding density of cell lines is 3000 cells/80 µL per well. For blank groups, add 100 µL medium. For PBS groups, add 100 µL PBS.
# (§4) 8) Incubate the U87MG, A549, T47D, SK-OV-3, MKN45, SK-Hep-1, HT-29, Capan-1, 786-O and LNCaP cells overnight at 37° C./5% CO2.
# (§5) Solid compound of cis-platinum was solubilized in PBS to a stock solution of 3.333 mM.
# (§6) Final volume is 100 µL per well at this point.
# (§7) 5) Incubate the plates at 37° C./5% CO2 for 72 hours.
# (§8) 1) Incubate the plates at room temperature and away from light for 30 minutes.
# (§9) 3) Add 100 µL /well of CellTiter-Glo® Reagent in each well. Avoid light.
# (§10) 4) Mix contents for 2 minutes on an orbital shaker.
# (§11) 5) Incubate plate at room temperature for 10 minutes to stabilize the luminescent signal.
# 6) Read plates in Envision.
# [3] = test system: breast cancer line T47D cells; assay: CTG (CellTiter-Glo) cell viability assay, 6×6 combo matrix, 72 h, T47D; details: Homo sapiens;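 note: luminescence read-out after 72 h at 37 °C under 5% CO2, with medium-only wells as blanks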
# [4] = test system: Liver cancer line SK-HEP-1 cells;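 note: luminescent signal read after 72 h compound exposure at 37 °C under 5% CO2, with medium-only wells serving as blank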
# [5] = test system: pancreatic cancer line Capan-1 cells; assay: CTG (CellTiter-Glo) cell viability assay, 6×6 combo matrix, 72 h, Capan-1; format: cell-based; details: for Relatively Cell inhibition of vehicle control(%): Capan-1
# How it was run: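 Capan-1 cells were seeded at 3000 cells per well and incubated overnight at 37 °C/5% CO2. They were then treated with compounds in a 6×6 combination matrix for 72 h at 37 °C/5% CO2. Viability was read by CellTiter-Glo luminescence to assess inhibition and synergy.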
# [6] = test system: colorectal cancer line HT29 cells; assay: CTG (CellTiter-Glo) cell viability assay, 6×6 combo matrix, 72 h, HT29; details: for Relatively Cell inhibition of vehicle control(%): HT29;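 for all read-outs here: cells exposed to compounds for 72 hours at 37 °C under 5% CO2, then viability read as luminescence after adding CellTiter-Glo Reagent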
# [7] = test system: ovarian cancer line SK-OV3 cells;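 note: luminescent signal read after CellTiter-Glo addition, cells exposed to compounds for 72 h at 37 °C under 5% CO2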
# Protocol: as §1, §2
# (§12) A549, T47D, SK-OV-3, MKN45, SK-Hep-1, HT-29, Capan-1, 786-O and LNCaP cell line, for compounds and vehicle groups, the seeding density of cell lines is 3000 cells/80 µL per well. For blank groups, add 100 µL medium. For PBS groups, add 100 µL PBS.
# as §4, §5, §6, §7, §8, §9, §10, §11
# 6) Read plates in Envision.
# [8] = test system: ovarian cancer line SK-OV3 cells; assay: CTG (CellTiter-Glo) cell viability assay, 6×6 combo matrix, 72 h, SK-OV-3; details: for Relatively Cell inhibition of vehicle control(%): SK-OV-3;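 for all read-outs here: luminescent signal read after CellTiter-Glo addition, cells exposed to compounds for 72 h at 37 °C under 5% CO2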
# Protocol: as §1, §2, §12, §4, §5, §6, §7, §8, §9, §10, §11
# 6) Read plates in Envision.
# [9] = test system: prostate adenocarcinoma line LNCap cells;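 note: luminescence signal read after adding CellTiter-Glo reagent, with cells exposed to compounds for 72 h at 37 °C under 5% CO2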
# [10] = test system: Liver cancer line SK-HEP-1 cells; assay: CTG (CellTiter-Glo) cell viability assay, 6×6 combo matrix, 72 h, SK-Hep-1; details: Homo sapiens;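 note: luminescent signal read after 72 h compound exposure at 37 °C under 5% CO2, with medium-only wells serving as blank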
# [11] = test system: prostate adenocarcinoma line LNCap cells; assay: CTG (CellTiter-Glo) cell viability assay, 6×6 combo matrix, 72 h, LNCaP; details: Homo sapiens, LNCaP;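 note: luminescence signal read after adding CellTiter-Glo reagent, with cells exposed to compounds for 72 h at 37 °C under 5% CO2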
# [12] = test system: kidney cancer line 786-O cells; assay: CTG (CellTiter-Glo) cell viability assay, 6×6 combo matrix, 72 h, 786-O; details: for Relatively Cell inhibition of vehicle control(%): 786-O;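 for all read-outs here: luminescence read-out after adding CellTiter-Glo reagent, with cells incubated at 37 °C under 5% CO2 during compound exposure, part of a ten cell line synergy study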
# Protocol: as §1, §2, §3, §4, §5, §6, §7, §8, §9, §10, §11
# 6) Read plates in Envision.
# [13] = test system: glioblastoma line U87MG cells; assay: CTG (CellTiter-Glo) cell viability assay, 6×6 combo matrix, 72 h, U87MG; details: Homo sapiens, U-87 MG;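 note: U87MG cells seeded at 2000 per well, exposed 72 h, viability read by CellTiter-Glo luminescence, inhibition expressed relative to vehicle-treated wells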
# Protocol: as §1, §2
# U87MG cell lines, for compounds and vehicle groups, the seeding density of cell lines is 2000 cells/80 µL per well. For blank groups, add 100 µL medium. For PBS groups, add 100 µL PBS.
# as §4, §5, §6, §7, §8, §9, §10, §11
# 6) Read plates in Envision.
# [14] = Homo sapiens, A549, read-out: Relatively Cell inhibition of vehicle control(%)
# [15] = Homo sapiens, HT-29, read-out: Relatively Cell inhibition of vehicle control(%)
# [16] = read-out: Relatively Cell inhibition of vehicle control(%), topotecan 16 nM only (myricetin plate)
# [17] = read-out: Relatively Cell inhibition of vehicle control(%), topotecan 80 nM only (myricetin plate)
# [18] = read-out: Relatively Cell inhibition of vehicle control(%), topotecan 400 nM only (myricetin plate)
# [19] = read-out: Relatively Cell inhibition of vehicle control(%), topotecan 2000 nM only (myricetin plate)
# [20] = read-out: Relatively Cell inhibition of vehicle control(%), topotecan 10000 nM only (myricetin plate)
# [21] = Homo sapiens, 786-0, read-out: Relatively Cell inhibition of vehicle control
smiles,measurement,setting,value
CC[C@@]1(O)C(=O)OCc2c1cc1n(c2=O)Cc2cc3c(CN(C)C)c(O)ccc3nc2-1 [topotecan],inhibition at 0.08 µM,[1]; [14],34.9%
same,inhibition at 0.4 µM,[1]; [14],60%
same,inhibition at 2 µM,[1]; [14],79.7%
same,inhibition at 10 µM,[1]; [14],94.4%
same,Relatively Cell inhibition of vehicle control(%),[1]; Top 16 nM only,-0.68%
same,Relatively Cell inhibition of vehicle control(%),[1]; Top 80 nM only,37.94%
same,Relatively Cell inhibition of vehicle control(%),[1]; Top 400 nM only,62.21%
same,Relatively Cell inhibition of vehicle control(%),[1]; Top 2000 nM only,80.57%
same,Relatively Cell inhibition of vehicle control(%),[1]; Top 10000 nM only,93.99%
same,inhibition,[2],2.61%
same,inhibition at […],"[3]; read-out: Relatively Cell inhibition of vehicle control(%), T47D, 16 nM topotecan only (myricetin 0)",12.5%
same,inhibition at 0.08 µM,"[3]; read-out: Relatively Cell inhibition of vehicle control(%), T47D, 80 nM topotecan only (LB-1 0)",29.6%
same,inhibition at 0.08 µM,"[3]; read-out: Relatively Cell inhibition of vehicle control(%), T47D, 80 nM topotecan only (myricetin 0)",36.9%
same,inhibition at 0.4 µM,"[3]; read-out: Relatively Cell inhibition of vehicle control(%), T47D, 400 nM topotecan only (LB-1 0)",45.7%
same,inhibition at 0.4 µM,"[3]; read-out: Relatively Cell inhibition of vehicle control(%), T47D, 400 nM topotecan only (myricetin 0)",53.9%
same,inhibition at 2 µM,"[3]; read-out: Relatively Cell inhibition of vehicle control(%), T47D, 2000 nM topotecan only (LB-1 0)",58.3%
same,inhibition at 2 µM,"[3]; read-out: Relatively Cell inhibition of vehicle control(%), T47D, 2000 nM topotecan only (myricetin 0)",62.7%
same,inhibition at 10 µM,"[3]; read-out: Relatively Cell inhibition of vehicle control(%), T47D, 10000 nM topotecan only (LB-1 0)",57.7%
same,inhibition at 10 µM,"[3]; read-out: Relatively Cell inhibition of vehicle control(%), T47D, 10000 nM topotecan only (myricetin 0)",61.9%
same,inhibition,[4],-0.38%
same,inhibition at […],"[5]; Homo sapiens, CAPAN-1, topotecan 16 nM only, read-out: Relatively Cell inhibition of vehicle control",21%
same,inhibition at 0.08 µM,"[5]; Homo sapiens, CAPAN-1, topotecan 80 nM only, read-out: Relatively Cell inhibition of vehicle control",53.9%
same,inhibition at 0.4 µM,"[5]; Homo sapiens, CAPAN-1, topotecan 400 nM only, read-out: Relatively Cell inhibition of vehicle control",74.3%
same,inhibition at 2 µM,"[5]; Homo sapiens, CAPAN-1, topotecan 2000 nM only, read-out: Relatively Cell inhibition of vehicle control",88.4%
same,inhibition at 10 µM,"[5]; Homo sapiens, CAPAN-1, topotecan 10000 nM only, read-out: Relatively Cell inhibition of vehicle control",78.1%
same,Relatively Cell inhibition of vehicle control(%),[5]; Top 16 nM only,13.17%
same,Relatively Cell inhibition of vehicle control(%),[5]; Top 80 nM only,54.35%
same,Relatively Cell inhibition of vehicle control(%),[5]; Top 400 nM only,74.56%
same,Relatively Cell inhibition of vehicle control(%),[5]; Top 2000 nM only,88.92%
same,Relatively Cell inhibition of vehicle control(%),[5]; Top 10000 nM only,81.26%
same,inhibition at 0.08 µM,[6]; [15],26.1%
same,inhibition at 0.4 µM,[6]; [15],64.8%
same,inhibition at 2 µM,[6]; [15],93.2%
same,inhibition at 10 µM,[6]; [15],79.4%
same,Relatively Cell inhibition of vehicle control(%),[6]; Top 16 nM only (Myr 0),11.50%
same,Relatively Cell inhibition of vehicle control(%),[6]; Top 80 nM only (Myr 0),21.57%
same,Relatively Cell inhibition of vehicle control(%),[6]; Top 400 nM only (Myr 0),71.12%
same,Relatively Cell inhibition of vehicle control(%),[6]; Top 2000 nM only (Myr 0),94.54%
same,Relatively Cell inhibition of vehicle control(%),[6]; Top 10000 nM only (Myr 0),82.42%
same,inhibition,[7],23%
same,inhibition at 1 µM,"[8]; Homo sapiens, SK-OV-3, read-out: inhibition rate",93.9%
same,Relatively Cell inhibition of vehicle control(%),[8]; Top 16 nM only (myricetin matrix),21.67%
same,Relatively Cell inhibition of vehicle control(%),[8]; Top 80 nM only (LB-1 matrix),68.74%
same,Relatively Cell inhibition of vehicle control(%),[8]; Top 80 nM only (myricetin matrix),67.77%
same,Relatively Cell inhibition of vehicle control(%),[8]; Top 400 nM only (LB-1 matrix),83.70%
same,Relatively Cell inhibition of vehicle control(%),[8]; Top 400 nM only (myricetin matrix),82.50%
same,Relatively Cell inhibition of vehicle control(%),[8]; Top 2000 nM only (LB-1 matrix),90.55%
same,Relatively Cell inhibition of vehicle control(%),[8]; Top 2000 nM only (myricetin matrix),90.97%
same,Relatively Cell inhibition of vehicle control(%),[8]; Top 10000 nM only (myricetin matrix),94.18%
same,inhibition,[9],15.4%
same,inhibition at […],"[10]; SK-HEP1, read-out: Relatively Cell inhibition of vehicle control, topotecan 16 nM only (myricetin table)",-4.24%
same,inhibition at 0.08 µM,"[10]; SK-HEP1, read-out: Relatively Cell inhibition of vehicle control, topotecan 80 nM only (LB-1 table)",9.52%
same,inhibition at 0.08 µM,"[10]; SK-HEP1, read-out: Relatively Cell inhibition of vehicle control, topotecan 80 nM only (myricetin table)",16%
same,inhibition at 0.4 µM,"[10]; SK-HEP1, read-out: Relatively Cell inhibition of vehicle control, topotecan 400 nM only (LB-1 table)",35.4%
same,inhibition at 0.4 µM,"[10]; SK-HEP1, read-out: Relatively Cell inhibition of vehicle control, topotecan 400 nM only (myricetin table)",37.7%
same,inhibition at 2 µM,"[10]; SK-HEP1, read-out: Relatively Cell inhibition of vehicle control, topotecan 2000 nM only (LB-1 table)",70.3%
same,inhibition at 2 µM,"[10]; SK-HEP1, read-out: Relatively Cell inhibition of vehicle control, topotecan 2000 nM only (myricetin table)",74.2%
same,inhibition at 10 µM,"[10]; SK-HEP1, read-out: Relatively Cell inhibition of vehicle control, topotecan 10000 nM only (LB-1 table)",98.6%
same,inhibition at 10 µM,"[10]; SK-HEP1, read-out: Relatively Cell inhibition of vehicle control, topotecan 10000 nM only (myricetin table)",99.1%
same,inhibition at 1 µM,"[10]; SK-HEP1, read-out: inhibition rate, 1000 nM topotecan only (footnote of the LB-1 table)",98.6%
same,inhibition at […],[11]; [16],17.6%
same,inhibition at 0.08 µM,"[11]; read-out: Relatively Cell inhibition of vehicle control(%), topotecan 80 nM only (LB-1 plate)",37.8%
same,inhibition at 0.08 µM,[11]; [17],40.1%
same,inhibition at 0.4 µM,"[11]; read-out: Relatively Cell inhibition of vehicle control(%), topotecan 400 nM only (LB-1 plate)",55.9%
same,inhibition at 0.4 µM,[11]; [18],60%
same,inhibition at 2 µM,"[11]; read-out: Relatively Cell inhibition of vehicle control(%), topotecan 2000 nM only (LB-1 plate)",82.1%
same,inhibition at 2 µM,[11]; [19],83.6%
same,inhibition at 10 µM,"[11]; read-out: Relatively Cell inhibition of vehicle control(%), topotecan 10000 nM only (LB-1 plate)",84.8%
same,inhibition at 10 µM,[11]; [20],87.5%
same,inhibition at 0.08 µM,[12]; [21],68.1%
same,inhibition at 0.4 µM,[12]; [21],82.5%
same,inhibition at 2 µM,[12]; [21],91.7%
same,inhibition at 10 µM,[12]; [21],93.9%
same,Relatively Cell inhibition of vehicle control(%),[12]; Top 80 nM only (LB-1 0),68.14%
same,Relatively Cell inhibition of vehicle control(%),[12]; Top 400 nM only (LB-1 0),83.15%
same,Relatively Cell inhibition of vehicle control(%),[12]; Top 2000 nM only (LB-1 0),91.65%
same,Relatively Cell inhibition of vehicle control(%),[12]; Top 10000 nM only (LB-1 0),93.59%
same,inhibition at […],"[13]; read-out: Relatively Cell inhibition of vehicle control(%), topotecan 16 nM only",15.6%
same,inhibition at […],[13]; [16],11.4%
same,inhibition at 0.08 µM,"[13]; read-out: Relatively Cell inhibition of vehicle control(%), topotecan 80 nM only",49.3%
same,inhibition at 0.08 µM,[13]; [17],51.6%
same,inhibition at 0.4 µM,"[13]; read-out: Relatively Cell inhibition of vehicle control(%), topotecan 400 nM only",64.1%
same,inhibition at 0.4 µM,[13]; [18],66.2%
same,inhibition at 2 µM,"[13]; read-out: Relatively Cell inhibition of vehicle control(%), topotecan 2000 nM only",73.5%
same,inhibition at 2 µM,[13]; [19],76.3%
same,inhibition at 10 µM,"[13]; read-out: Relatively Cell inhibition of vehicle control(%), topotecan 10000 nM only",82.1%
same,inhibition at 10 µM,[13]; [20],83.4%
